target: human activated kallikrein enzyme (plasma kallikrein) (Homo sapiens (Human), UniProt P03952); assay: Inhibition of human activated plasma kallikrein, fluorogenic peptide substrate assay, 500 pM enzyme format; type: biochemical; conditions: not given
In short: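 Buffer 20 mM Tris pH 7.5, EDTA, NaCl, PEG-400, Triton X-100; 300 uM Pro-Phe-Arg-AMC; enzyme–inhibitor preincubation 30 min RT. Format one: 500 pM kallikrein, 10 min RT reaction; format two: 5 pM kallikrein, 18 h RT reaction. Fluorescence read at 460 nm (380 nm excitation).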

human activated kallikrein enzyme (plasma kallikrein), sequence (P03952 391-638): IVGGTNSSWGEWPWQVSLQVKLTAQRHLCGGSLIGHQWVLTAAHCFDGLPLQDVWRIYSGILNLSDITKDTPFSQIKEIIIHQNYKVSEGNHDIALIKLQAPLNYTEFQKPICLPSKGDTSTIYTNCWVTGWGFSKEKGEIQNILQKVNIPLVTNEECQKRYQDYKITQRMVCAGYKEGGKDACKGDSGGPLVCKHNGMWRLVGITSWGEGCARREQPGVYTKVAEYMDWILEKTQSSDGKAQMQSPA
human activated kallikrein enzyme (plasma kallikrein), sequence (P03952 20-390 partner): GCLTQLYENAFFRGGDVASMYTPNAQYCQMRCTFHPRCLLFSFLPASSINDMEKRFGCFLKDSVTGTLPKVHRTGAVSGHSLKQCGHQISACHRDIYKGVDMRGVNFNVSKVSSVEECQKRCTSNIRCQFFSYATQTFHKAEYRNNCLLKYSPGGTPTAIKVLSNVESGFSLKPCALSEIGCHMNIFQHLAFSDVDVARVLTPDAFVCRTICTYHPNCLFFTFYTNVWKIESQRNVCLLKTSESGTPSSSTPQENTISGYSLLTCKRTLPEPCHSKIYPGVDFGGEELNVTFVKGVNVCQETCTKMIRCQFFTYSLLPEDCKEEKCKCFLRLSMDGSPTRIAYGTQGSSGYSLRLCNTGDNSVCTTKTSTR

SMILES	EC50
O=C(NCc1ncn2ccc(Cl)cc12)c1cn(Cc2cn3cc(C4CC4)ccc3n2)c2cccnc12 [Example I-29, N-((7-chloroimidazo[1,5-a]pyridin-1-yl)methyl)-1-((6-cyclopropylimidazo[1,2-a]pyridin-2-yl)methyl)-1H-pyrrolo[3,2-b]pyridine-3-carboxamide]	10 to 100 nM

same assay, conditions: 500 pM activated kallikrein enzyme, 300 uM Pro-Phe-Arg-7-amido-4-methylcoumarin substrate, 30 min preincubation, 10 min at RT; read-out: Primary Dose Response Assay: Average EC50

SMILES	EC50
O=C(NCc1ncn2ccc(Cl)c(F)c12)c1cn(Cc2cn3cc(C4CC4)cc(-n4cnnn4)c3n2)nn1 [Example I-179, N-((7-chloro-8-fluoroimidazo[1,5-a]pyridin-1-yl)methyl)-1-((6-cyclopropyl-8-(1H-tetrazol-1-yl)imidazo[1,2-a]pyridin-2-yl)methyl)-1H-1,2,3-triazole-4-carboxamide]	< 1 nM
O=C(NCc1ncn2ccc(Br)cc12)c1cnn(Cc2cn3cc(C4CC4)c(Cl)cc3n2)c1 [Example I-25, N-((7-bromoimidazo[1,5-a]pyridin-1-yl)methyl)-1-((7-chloro-6-cyclopropylimidazo[1,2-a]pyridin-2-yl)methyl)-1H-pyrazole-4-carboxamide]	1 to 10 nM
O=C(NCc1ncn2ccc(Cl)cc12)c1cnn(Cc2cc3ncc(C4CC4)cc3[nH]2)c1 [Example I-84, N-((7-chloroimidazo[1,5-a]pyridin-1-yl)methyl)-1-((6-cyclopropyl-1H-pyrrolo[3,2-b]pyridin-2-yl)methyl)-1H-pyrazole-4-carboxamide]	10 to 100 nM
O=C(O)Cc1cc(C2CC2)cn2cc(Cn3cc(C(=O)NCc4ncn5ccc(Cl)cc45)cn3)nc12 [Example I-86, 2-(2-((4-(((7-chloroimidazo[1,5-a]pyridin-1-yl)methyl)carbamoyl)-1H-pyrazol-1-yl)methyl)-6-cyclopropylimidazo[1,2-a]pyridin-8-yl)acetic acid]	< 1 nM
O=C(NCc1ncn2ccc(Br)c(F)c12)c1cn(Cc2cn3cc(C4CC4)ccc3n2)nn1 [Example I-134, N-((7-bromo-8-fluoroimidazo[1,5-a]pyridin-1-yl)methyl)-1-((6-cyclopropylimidazo[1,2-a]pyridin-2-yl)methyl)-1H-1,2,3-triazole-4-carboxamide]	< 1 nM
O=C(NCc1ncn2ccc(Cl)cc12)c1cn(Cc2cn3cc(C4CC4)ccc3n2)nn1 [Example I-80, N-((7-chloroimidazo[1,5-a]pyridin-1-yl)methyl)-1-((6-cyclopropylimidazo[1,2-a]pyridin-2-yl)methyl)-1H-1,2,3-triazole-4-carboxamide]	< 1 nM
O=C(NCc1ncn2ccc(Cl)cc12)c1cn(Cc2cn3cc(C4CC4)ccc3n2)nc1C(F)F [Example I-99, N-((7-chloroimidazo[1,5-a]pyridin-1-yl)methyl)-1-((6-cyclopropylimidazo[1,2-a]pyridin-2-yl)methyl)-3-(difluoromethyl)-1H-pyrazole-4-carboxamide]	< 1 nM
O=C(NCc1ncn2ccc(Cl)c(F)c12)c1cn(Cc2cn3cc(C4CC4)cc(C(O)C4COC4)c3n2)nn1 (stereo not shown) [Example I-279, N-((7-chloro-8-fluoroimidazo[1,5-a]pyridin-1-yl)methyl)-1-((6-cyclopropyl-8-(hydroxy(oxetan-3-yl)methyl)imidazo[1,2-a]pyridin-2-yl)methyl)-1H-1,2,3-triazole-4-carboxamide]	< 1 nM
O=C(NCc1ncn2ccc(Cl)cc12)c1cnn(Cc2cn3cc(C4CC4)cc(CCO)c3n2)c1 [Example I-87, N-((7-chloroimidazo[1,5-a]pyridin-1-yl)methyl)-1-((6-cyclopropyl-8-(hydroxyethyl)imidazo[1,2-a]pyridin-2-yl)methyl)-1H-pyrazole-4-carboxamide]	< 1 nM
O=C(NCc1ncn2ccc(Cl)c(F)c12)c1cn(Cc2cc3cc(C4CC4)cc(N4CCCC4=O)n3n2)nn1 [Example I-262, N-((7-chloro-8-fluoroimidazo[1,5-a]pyridin-1-yl)methyl)-1-((5-cyclopropyl-7-(2-oxopyrrolidin-1-yl)pyrazolo[1,5-a]pyridin-2-yl)methyl)-1H-1,2,3-triazole-4-carboxamide]	< 1 nM
Cn1nc(C(=O)NCc2ncn3ccc(Cl)cc23)nc1Cc1cn2cc(C3CC3)ccc2n1 [Example I-160, N-((7-chloroimidazo[1,5-a]pyridin-1-yl)methyl)-5-((6-cyclopropylimidazo[1,2-a]pyridin-2-yl)methyl)-1-methyl-1H-1,2,4-triazole-3-carboxamide]	1 to 10 nM
Cc1cc2nc(Cn3cc(C(=O)NCc4ncn5ccc(Cl)cc45)cn3)cn2cc1C1CC1 [Example I-16, N-((7-chloroimidazo[1,5-a]pyridin-1-yl)methyl)-1-((6-cyclopropyl-7-methylimidazo[1,2-a]pyridin-2-yl)methyl)-1H-pyrazole-4-carboxamide]	1 to 10 nM
O=C(O)Cc1cc(C2CC2)cn2cc(Cn3cc(C(=O)NCc4ncn5ccc(Br)c(F)c45)cn3)nc12 [Example I-106, 2-(2-((4-(((7-bromo-8-fluoroimidazo[1,5-a]pyridin-1-yl)methyl)carbamoyl)-1H-pyrazol-1-yl)methyl)-6-cyclopropylimidazo[1,2-a]pyridin-8-yl)acetic acid]	< 1 nM
O=C(NCc1ncn2ccc(Cl)cc12)c1nc(Cc2cn3cc(C4CC4)ccc3n2)no1 [Example I-190, N-((7-chloroimidazo[1,5-a]pyridin-1-yl)methyl)-3-((6-cyclopropylimidazo[1,2-a]pyridin-2-yl)methyl)-1,2,4-oxadiazole-5-carboxamide]	< 1 nM
O=C(NCc1ncn2cc(F)c(Br)cc12)c1cnn(Cc2cn3cc(C4CC4)ccc3n2)c1 [Example I-151, N-((7-bromo-6-fluoroimidazo[1,5-a]pyridin-1-yl)methyl)-1-((6-cyclopropylimidazo[1,2-a]pyridin-2-yl)methyl)-1H-pyrazole-4-carboxamide]	10 to 100 nM
N#Cc1cc(C2CC2)cn2cc(Cn3cc(C(=O)NCc4ncn5ccc(Cl)c(F)c45)nn3)nc12 [Example I-149, N-((7-chloro-8-fluoroimidazo[1,5-a]pyridin-1-yl)methyl)-1-((8-cyano-6-cyclopropylimidazo[1,2-a]pyridin-2-yl)methyl)-1H-1,2,3-triazole-4-carboxamide]	< 1 nM
CCn1ncn(-c2cc(C3CC3)cn3cc(Cn4cc(C(=O)NCc5ncn6ccc(Cl)c(F)c56)nn4)nc23)c(=O)c1=O [Example I-242, N-((7-chloro-8-fluoroimidazo[1,5-a]pyridin-1-yl)methyl)-1-((6-cyclopropyl-8-(1-ethyl-5,6-dioxo-5,6-dihydro-1,2,4-triazin-4(1H)-yl)imidazo[1,2-a]pyridin-2-yl)methyl)-1H-1,2,3-triazole-4-carboxamide]	< 1 nM
O=C(NCc1ncn2ccc(Cl)c(F)c12)c1cn(Cc2cc3cc(C4CC4)cnc3s2)nn1 [Example I-189, N-((7-chloro-8-fluoroimidazo[1,5-a]pyridin-1-yl)methyl)-1-((5-cyclopropylthieno[2,3-b]pyridin-2-yl)methyl)-1H-1,2,3-triazole-4-carboxamide]	< 1 nM
CC(C)c1ccc2nc(Cn3cc(C(=O)NCc4ncn5ccc(Cl)cc45)cn3)cn2c1 [Example I-8, N-((7-chloroimidazo[1,5-a]pyridin-1-yl)methyl)-1-((6-isopropylimidazo[1,2-a]pyridin-2-yl)methyl)-1H-pyrazole-4-carboxamide]	< 1 nM
O=C(NCc1ncn2ccc(Cl)c(F)c12)c1cn(Cc2cn3cc(C4CC4)cc(Cn4cccn4)c3n2)nn1 [Example I-201, 1-((8-((1H-pyrazol-1-yl)methyl)-6-cyclopropylimidazo[1,2-a]pyridin-2-yl)methyl)-N-((7-chloro-8-fluoroimidazo[1,5-a]pyridin-1-yl)methyl)-1H-1,2,3-triazole-4-carboxamide]	< 1 nM
Nc1ccc2c(CNC(=O)c3cnn(Cc4cn5cc(C6CC6)ccc5n4)c3)ncn2c1 [Example I-53, N-((6-aminoimidazo[1,5-a]pyridin-1-yl)methyl)-1-((6-cyclopropylimidazo[1,2-a]pyridin-2-yl)methyl)-1H-pyrazole-4-carboxamide]	100 to 2000 nM
O=C(NCc1ncn2ccc(Br)cc12)c1cnn(Cc2cn3cc(C4CC4)ccc3n2)c1 [Example I-5, N-((7-bromoimidazo[1,5-a]pyridin-1-yl)methyl)-1-((6-cyclopropylimidazo[1,2-a]pyridin-2-yl)methyl)-1H-pyrazole-4-carboxamide]	< 1 nM
O=C(NCc1ncn2ccc(Cl)c(F)c12)c1cn(Cc2cn3cc(C4CC4)cnc3n2)nn1 [Example I-165, N-((7-chloro-8-fluoroimidazo[1,5-a]pyridin-1-yl)methyl)-1-((6-cyclopropylimidazo[1,2-a]pyrimidin-2-yl)methyl)-1H-1,2,3-triazole-4-carboxamide]	< 1 nM
O=C(NCc1ncn2ccc(Cl)cc12)c1noc(Cc2cn3cc(C4CC4)ccc3n2)n1 [Example I-177, N-((7-chloroimidazo[1,5-a]pyridin-1-yl)methyl)-5-((6-cyclopropylimidazo[1,2-a]pyridin-2-yl)methyl)-1,2,4-oxadiazole-3-carboxamide]	1 to 10 nM
COc1cccc2nc(Cn3cc(C(=O)NCc4ncn5ccc(Cl)cc45)cn3)cn12 [Example I-63, N-((7-chloroimidazo[1,5-a]pyridin-1-yl)methyl)-1-((5-methoxyimidazo[1,2-a]pyridin-2-yl)methyl)-1H-pyrazole-4-carboxamide]	10 to 100 nM
CC1CC1c1ccc2nc(Cn3cc(C(=O)NCc4ncn5ccc(Cl)cc45)cn3)cn2c1 (stereo not shown) [Example I-43, N-((7-chloroimidazo[1,5-a]pyridin-1-yl)methyl)-1-((6-(2-methylcyclopropyl)imidazo[1,2-a]pyridin-2-yl)methyl)-1H-pyrazole-4-carboxamide]	< 1 nM
O=C(NCc1ncn2ccc(Br)cc12)c1cnn(Cc2cn3cc(C4CC4)c(F)cc3n2)c1 [Example I-20, N-((7-bromoimidazo[1,5-a]pyridin-1-yl)methyl)-1-((6-cyclopropyl-7-fluoroimidazo[1,2-a]pyridin-2-yl)methyl)-1H-pyrazole-4-carboxamide]	1 to 10 nM

Source: US10730874B2 (Shire Human Genetic Therapies, Inc., priority 2018, dated 2020)
